# Assay results from ChEMBL document CHEMBL1132906, “Squalamine analogues as potential anti-trypanosomal and anti-leishmanial compounds” (2000).
# Where “and” joins values, the source holds several entries; their conditions need not be identical. Identical values can stand only once. Calls of active or inactive are those of the source. The rule behind the calls is not given here.
# How the values were obtained:
# [1] = The compound was evaluated for its toxicity against KB cells; type: functional; settings: Homo sapiens, read-out: ED50 (the source's name)
# Trypanosoma brucei [2] = test: The compound was evaluated for its inhibitory activity against Trypanosoma brucei (indicate results of two experiments); type: functional; settings: read-out: ED50 (the source's name)
# Trypanosoma cruzi [3] = test: The compound was evaluated for its inhibitory activity against Trypanosoma cruzi; type: functional; settings: read-out: ED50 (the source's name)
# Leishmania donovani = test: The compound was evaluated for its inhibitory activity against Leishmania donovani; type: functional; settings: read-out: ED50 (the source's name)
# Trypanosoma brucei [4] = test: The compound was evaluated for the inhibition of Trypanosoma brucei at 1 (ug/ml).; type: functional
# Trypanosoma brucei [5] = test: The compound was evaluated for its inhibitory activity against Trypanosoma brucei; type: functional; settings: read-out: ED50 (the source's name)
# Trypanosoma cruzi [6] = test: The compound was evaluated for its inhibitory activity against Trypanosoma cruzi (toxic effect on macrophages); type: functional; settings: read-out: ED50 (the source's name)
# Mus musculus [7] = test: Percent reduction (in vivo) against mice infected with Leishmania donovani after intraperitoneal administration of compound (50 mg/kg for 5 days); type: functional
# Mus musculus [8] = test: Inhibitory activity (in vivo) against mice infected with Trypanosoma rhodesiense after intraperitoneal administration of compound (50 mg/kg for 4 days); No effect; type: functional, organism-based
SMILES,EC50 (Trypanosoma brucei [2]) [nM],EC50 (Trypanosoma cruzi [3]),EC50 (Leishmania donovani) [µM],EC50 (Trypanosoma brucei [5]),EC50 (Trypanosoma brucei [5]; Trypanosoma brucei) [nM],EC50 [1] [µM],Inhibition (Trypanosoma brucei [4]) [%],EC50 (Trypanosoma cruzi [6]) [µM],Reduction (Mus musculus [7]) [%],Activity (Mus musculus [8])
N=C(N)c1ccc(OCCCCCOc2ccc(C(=N)N)cc2)cc1 [PENTAMIDINE],–,–,–,–,–,–,100,–,–,–
CC(=O)O[C@H]1CC[C@@]2(C)C(=CCC3C2CC[C@@]2(C)C3CC[C@@H]2C(C)C(=O)NCCCN(CCCCN(CCCNC(=O)OC(C)(C)C)C(=O)OC(C)(C)C)C(=O)OC(C)(C)C)C1 (stereo partly drawn),–,> 34 µM,4.7,570 nM,1100,31,–,–,–,–
CC(C(=O)NCCCN(CCCCNC(=O)OC(C)(C)C)C(=O)OC(C)(C)C)[C@H]1CCC2C3CC=C4C[C@@H](OS(=O)(=O)O)CC[C@]4(C)C3CC[C@@]21C (stereo partly drawn),> 36000,–,4.9,–,–,> 360,–,> 36,–,–
CC(C(=O)NCCCNCCCCN)[C@H]1CCC2C3CC=C4C[C@@H](O)CC[C@]4(C)C3CC[C@@]21C (stereo partly drawn),–,–,44.7,1900 nM and 630 nM,–,3.3,–,> 63,–,–

# Second part, led by results:
EC50 (Trypanosoma brucei [2]) [nM],EC50 (Trypanosoma cruzi [3]),EC50 (Leishmania donovani) [µM],EC50 (Trypanosoma brucei [5]),EC50 (Trypanosoma brucei [5]; Trypanosoma brucei) [nM],SMILES,EC50 [1] [µM],Inhibition (Trypanosoma brucei [4]) [%],EC50 (Trypanosoma cruzi [6]) [µM],Reduction (Mus musculus [7]) [%],Activity (Mus musculus [8])
> 53000,13.5 µM,39.9,–,–,CC(C(=O)NCCCNCCCCN)[C@H]1CCC2C3CC=C4C[C@@H](OS(=O)(=O)O)CC[C@]4(C)C3CC[C@@]21C (stereo partly drawn),> 526,–,–,–,–
–,7.45 µg/mL,–,–,–,O=C(Cn1ccnc1[N+](=O)[O-])NCc1ccccc1 [BENZNIDAZOLE],–,–,–,–,–
–,–,25.7,4700 nM and 1500 nM,–,CC(C(=O)NCCCN(CCCCNC(=O)OC(C)(C)C)C(=O)OC(C)(C)C)[C@H]1CCC2C3CC=C4C[C@@H](O)CC[C@]4(C)C3CC[C@@]21C (stereo partly drawn),65,–,> 15,–,–
600,> 36 µM,12.6,–,–,CC(C(=O)NCCCN(CCCCN(CCCNC(=O)OC(C)(C)C)C(=O)OC(C)(C)C)C(=O)OC(C)(C)C)[C@H]1CCC2C3CC=C4C[C@@H](O)CC[C@]4(C)C3CC[C@@]21C (stereo partly drawn),27,–,–,–,–
–,–,5,1100 nM,560,CC(C(=O)NCCCNCCCCNCCCN)[C@H]1CCC2C3CC=C4C[C@@H](O)CC[C@]4(C)C3CC[C@@]21C (stereo partly drawn),15,–,> 57,16,inactive
2600,> 42 µM,17.3,–,–,CC(=O)O[C@H]1CC[C@@]2(C)C(=CCC3C2CC[C@@]2(C)C3CC[C@@H]2C(C)C(=O)NCCCN(CCCCNC(=O)OC(C)(C)C)C(=O)OC(C)(C)C)C1 (stereo partly drawn),111,–,–,–,–
